Measured values as given in US12171870B2, “Contact lens packaging solutions” (ALCON INC., priority 2020, dated 2024).

How the values were obtained:
[1] = DMPC phosphate group; cited from earlier work
[2] = Dissolution of DMPC in HCl aqueous solution and nanoparticle formation by stirring; type: physicochemical
Text: The present invention is partly based on the discovery that phosphatidylcholine nanoparticles can be formed in an aqueous solution free of an organic solvent by high energy treating the mixture of water insoluble phosphatidylcholine and an aqueous solution having a pH from 1 to 4. The present invention is also partly based on the discovery that at pH lower than pKa, the negative charge of phosphate group in phosphatidylcholine is neutralized through the protonation, which break static stacking in phosphatidylcholine crystal and improve solubility of phosphatidylcholine in an aqueous solution (scheme 1). For example, according to the experimental results of the present application, DMPC is dissolved (pKa 1.86) into 137 mM of HCl aqueous solution up to 10 mg/mL and induced aggregate and formed nanoparticles (˜30 nm) by stirring at room temperature for about 10 hours. After neutralized by NaOH, the nanoparticles were diluted to certain concentration in packing saline.
Method: DMPC was added into 135 mM of HCl and stirred overnight at room temperature to form nanoparticles (4-440 mg/mL). Then, pH was adjusted to 6-8 by 50% NaOH. The solution was diluted by PBS or Saline 14 to get certain concentration (0.1-2 mg/mL).

solubility ([2]; 137 mM HCl aqueous solution, read-out: DMPC dissolved into HCl aqueous solution (solubility)): ≤ 10000 µg/mL
Nanoparticle size ([2]; formed by stirring at room temperature for about 10 hours in 137 mM HCl): ~30 nm
Compound: CCCCCCCCCCCCCC(=O)OC[C@H](COP(=O)([O-])OCC[N+](C)(C)C)OC(=O)CCCCCCCCCCCCC [DMPC, Dimyristoylphosphatidylcholine]
pKa [1]: 1.86
